Read-outs that look alike come from different tables or passages of the source. Numbered stars: 1 amine (or outer) side, 2 acyl side, 3 side chain; on linkers, the order of the positions; unused ones are H or OH. Bridge positions count the residues as written; N and C are the ends. Square brackets hold non-standard residues; d marks the D form. Peptide text beside a SMILES is read from it. I, II: the chains in the order shown. γGlu = O=C(O)[C@H](CCC(=O)[*:2])N[*:1]
Key:
[1] = test system: K562 cells; design: method as in PMID 17577738, PMID 15489015; settings: cited from earlier work
[2] = pKa of thiol groups, spectrophotometric titration; type: physicochemical; settings: 50 μM peptide in phosphate buffered saline, titrated with 1 M NaOH, absorbance at 240 nm
Method: The ratio of thiol and thiolate concentrations were measured spectrophotometrically at 240 nm on a PerkinElmer Lambda 25 spectrometer similarly as previously for GSH and α-GSH [21]. 1 mL of 50 μM peptide solution in phosphate buffered saline (Calbiochem, USA) was titrated with 5 μL volumes of 1 M NaOH and pH and absorbance changes were determined after each addition. The results were corrected to consider the dilution of the assay mixture during titration.

[3] = previous work; cited from earlier work
Source text: UPF1 and UPF17 have also shown different effects in free radical scavenging experiments. According to the classification of kinetic behavior by Sánches-Moreno et al., UPF17 is classified as fast and UPF1 as intermediate DPPH radical scavenger. […] This raised a question about pKa values for the thiol groups of UPF peptides. Previously, the change of γ-peptide bond to α-peptide bond has also been investigated f ...

[4] = test system: equine kidney γ-glutamyltranspeptidase; experiment: Stability towards γ-glutamyltranspeptidase (HPLC-MS); settings: 1 mM peptide, 0.3 mg/mL equine kidney GGT, 0.1 M Tris-HCl pH 7.4, 0.1% EDTA, 6 mM Gly-Gly acceptor, 37°C, 1 h; HPLC-MS read-out
Method: 6 mM Gly-Gly was added as an acceptor for γ-Glu moiety [20]. GSH was incubated with GGT under the same conditions as the control. The samples were heat-inactivated, centrifuged at 10000 g and +4°C for 5 min, and kept on ice until analyzed. Supernatants were analyzed on a Prominence HPLC (Shimadzu, Japan) and Q-Trap 3200 (Applied Biosystems, USA) mass spectrometry tandem. Luna C18 100 × 2 mm, 3 μm column from Phenomenex was used for sample separation. Solvent A was a mixture of 99.9% water and 0.1% HCOOH, and solvent B was a mixture of 99.9% acetonitrile and 0.1% HCOOH (mass spectrometry grade, Riedel-de Haėn, Germany). Samples were eluated at a flow rate of 0.1 mL/min, gradient started with 5 min at isocratic flow of solvent A, concentration of solvent B increased up to 30% in 25 min, followed by wash with 100% solvent B in 20 min. Enhanced MS scans were performed in negative mode with rate 1000 amu/s between mass range 50–1700 Da. Ionspray voltage was set to −4500 V, declustering potential to −30 V and entrance potential to −10 V.

[5] = test system: primary culture of cerebellar granule cells; design: method as in PMID 17577738, PMID 15489015; settings: cited from earlier work

Compound | pKa of thiol group [2] | degradation by GGT [4] | concentration up to which nontoxic for K562 cells [1] [µM] | pKa of thiol group [3] | concentration up to which no toxic effect on cerebellar granule cells [5]
N[C@@H](CCC(=O)N[C@@H](CS)C(=O)NCC(=O)O)C(=O)O [GSH, γ-L-Glu-L-Cys-Gly, reference compound] | 9.0 ± 0.3 |  |  | 9.0 ± 0.1 | 
N[C@@H](CCC(=O)O)C(=O)N[C@@H](CS)C(=O)NCC(=O)O [α-GSH] (H-Glu-Cys-Gly-OH) | 9.1 ± 0.1 |  |  | 9.1 ± 0.1 | 

Continued, in another order:

pKa of thiol group [2] | degradation by GGT [4] | Compound | concentration up to which nontoxic for K562 cells [1] [µM] | pKa of thiol group [3] | concentration up to which no toxic effect on cerebellar granule cells [5]
9.4 ± 0.2 |  | COc1ccc(C[C@H](N)C(=O)N[C@@H](CCC(=O)O)C(=O)N[C@@H](CS)C(=O)NCC(=O)O)cc1 [UPF17, Tyr(Me)-Glu-Cys-Gly] (H-Y(Me)ECG-OH) | ≤ 200 |  | 
 | not detected | COc1ccc(C[C@H](N)C(=O)N[C@@H](CCC(=O)N[C@@H](CSSC[C@H](NC(=O)CC[C@H](NC(=O)[C@@H](N)Cc2ccc(OC)cc2)C(=O)O)C(=O)NCC(=O)O)C(=O)NCC(=O)O)C(=O)O)cc1 [dimerised UPF1] (I: H-Y(Me)[γGlu]CG-OH / II: H-Y(Me)[γGlu]CG-OH; disulfide I:3-II:3) |  |  | 
9.3 ± 0.1 | not degraded | COc1ccc(C[C@H](N)C(=O)N[C@@H](CCC(=O)N[C@@H](CS)C(=O)NCC(=O)O)C(=O)O)cc1 [UPF1, Tyr(Me)-γ-Glu-Cys-Gly] (H-Y(Me)[γGlu]CG-OH) | ≤ 200 |  | up to 100 μM

— PMC3348524, “Diverse Effects of Glutathione and UPF Peptides on Antioxidant Defense System in Human Erythroleukemia Cells K562” (International Journal of Peptides, 2012)
